Test results taken from patent US5580982A, “Substituted 3-(aminoalkylamino)-1,2-benzisoxazoles and related compounds” (priority 1995, dated 1996).

Tests used:
MAO-B = biological target: T1, MAO-B (Rattus norvegicus, UniProt P19643); test: Inhibition of Type B monoamine oxidase activity in rat brain synaptosomes; format: biochemical; conditions: substrate [^14 C]-PEA 200 μM; read-out: Inhibitory Concentration - IC50 MAO-B
T1 construct: the whole brain without cerebellum was dissected rapidly and frozen on dry ice; from tissue; host or cells: whole brain without cerebellum of orally dosed male Wistar rats, homogenate
T1 sequence (P19643 1-520): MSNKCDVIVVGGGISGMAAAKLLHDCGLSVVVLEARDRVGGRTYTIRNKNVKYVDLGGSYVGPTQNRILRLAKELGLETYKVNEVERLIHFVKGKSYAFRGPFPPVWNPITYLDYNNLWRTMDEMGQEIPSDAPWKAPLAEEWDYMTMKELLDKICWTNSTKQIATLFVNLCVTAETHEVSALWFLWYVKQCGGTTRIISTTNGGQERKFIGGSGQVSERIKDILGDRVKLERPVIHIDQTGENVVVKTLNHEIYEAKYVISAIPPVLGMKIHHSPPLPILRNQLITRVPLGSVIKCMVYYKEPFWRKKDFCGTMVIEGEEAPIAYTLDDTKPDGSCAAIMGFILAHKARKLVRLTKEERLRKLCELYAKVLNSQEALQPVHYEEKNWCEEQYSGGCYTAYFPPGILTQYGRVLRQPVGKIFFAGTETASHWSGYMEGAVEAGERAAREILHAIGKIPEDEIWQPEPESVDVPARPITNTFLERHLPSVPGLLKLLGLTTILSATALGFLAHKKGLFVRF
Description: Male Wistar rats weighing 150-250 grams were sacrificed and the brains rapidly removed.

MAO-A = biological target: T2, MAO-A (Rattus norvegicus, UniProt P21396); test: Inhibition of Type A monoamine oxidase activity in rat brain synaptosomes; format: biochemical; conditions: substrate [^3 H]-5HT 200 μM; read-out: Inhibitory Concentration - IC50 MAO-A
T2 construct: the whole brain without cerebellum was dissected rapidly and frozen on dry ice; from tissue; host or cells: whole brain without cerebellum of orally dosed male Wistar rats, homogenate
T2 sequence (P21396 1-526): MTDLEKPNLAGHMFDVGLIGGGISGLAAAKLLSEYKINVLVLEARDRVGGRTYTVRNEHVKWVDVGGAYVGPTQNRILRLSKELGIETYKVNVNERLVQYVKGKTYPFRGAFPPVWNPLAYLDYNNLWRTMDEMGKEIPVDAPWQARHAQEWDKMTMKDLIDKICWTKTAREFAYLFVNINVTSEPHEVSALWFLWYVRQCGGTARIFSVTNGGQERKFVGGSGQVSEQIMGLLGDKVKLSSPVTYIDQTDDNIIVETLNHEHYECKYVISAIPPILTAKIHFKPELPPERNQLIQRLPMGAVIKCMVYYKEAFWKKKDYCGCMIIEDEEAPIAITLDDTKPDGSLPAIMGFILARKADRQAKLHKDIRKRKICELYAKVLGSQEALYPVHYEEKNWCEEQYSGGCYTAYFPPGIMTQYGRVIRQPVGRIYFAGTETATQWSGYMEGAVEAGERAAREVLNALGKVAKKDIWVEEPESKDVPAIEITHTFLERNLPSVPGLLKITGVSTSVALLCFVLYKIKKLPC
Protocol: Inhibition of Type A and Type B Monoamine Oxidase Activity in Rat Brain Synaptosomes
To determine the selective inhibition of the two forms of monoamine oxidase (MAO).
Although various methods for measuring MAO activity are available, the described method involves the extraction of the radiolabeled deaminated metabolites of [^3 H]-5HT or [^14 C]-β-phenethylamine. This procedure allows MAO-A and MAO-B activities to be measured either simultaneously or individually (3).
c. Add 12 μl of [^3 H]-5HT to 2 ml of the 5 mM 5HT solution. (Final amine concentration in the assay is 200 μM: see below.)
5. Equal amounts of MAO-A (5HT) and MAO-B (PEA) substrates are combined for simultaneously testing both MAO types, i.e. mixed stock solution of 2.5 mM 5HT and 2.5 mM PEA, 40 μl of this mixed solution gives a 200 μM final concentration of each amine in the assay. When testing only one MAO type, the individual 5 mM stock solutions must be diluted 1:1 with distilled water prior to adding 40 μl to the incubation mixture; i.e., same 200 μM final amine concentration.
Male Wistar rats weighing 150-250 grams were sacrificed and the brains rapidly removed. Whole brain minus cerebellum was homogenized in 30 volumes of ice-cold, phosphate-buffered 0.25M sucrose, using a Potter-Elvejhem homogenizer. The homogenate was centrifuged at 1000 g for 10 minutes and the supernatant (S1) decanted and recentrifuged at 18,000 g for 20 minutes. The resulting pellet (P2) was resuspended in fresh 0.25M sucrose and served as the tissue source for mitochondrial MAO.
Tubes are preincubated for 15 minutes at 37° C. and the assay is started by adding 40 μl of combined substrate ([^3 H]-5HT and [^14 C]-PEA) at 15 second intervals. The tubes are incubated for 30 minutes at 37° C. and the reaction stopped by the addition of 0.3 ml 2N HCl. Tissue blank values are determined by adding the acid before the radioactive substrate. The oxidative products of the reaction are extracted with ethyl acetate/toluene (1:1). 5 ml of this mixture is added to the tubes. The resultant mixture is vortexed for 15 seconds to extract the deaminated metabolites into the organic phase and the latter is allowed to separate from the aqueous phase. The tubes are placed in acetone/dry ice bath to freeze the aqueous layer. When this layer is frozen, the top organic layer is poured into a scintillation vial. 10 ml of Liquiscint is added and the samples are counted using window settings for ^14 C in one channel and ^3 H in the second channel. IC50 values are determined by log-probit analysis.

SMILES	IC50 (MAO-B)	IC50 (MAO-A)
COc1ccc2c(N3CCN(c4ccncc4)CC3)noc2c1 [6-Methoxy-3-[1-(4-pyridyl)piperazinyl)]-1,2-benzisoxazole]	45 µM	10 µM
COc1ccc2c(N(C)CCN3CCOCC3)noc2c1 [6-Methoxy-N-methyl-N-[2-(4-morpholinyl)ethyl]-1,2-benzisoxazol-3-amine]	> 1000 µM	13 µM
